In US20210169690A1, “Self-Retaining Implantable Drug Delivery Device” (GoldenBiotech, LLC, priority 2019, published 2021):

What was measured:
Assay type in all cases: physicochemical
[1] = In vitro drug release from silicone polymer matrix test samples in PBS pH 7.4 at 37° C., RPHPLC; conditions: 10% Travoprost matrix plug, PARYLENE about 0.68 μm, two 18G depot channels
Protocol: To test the controlled release properties of the disclosed drug-loaded silicone polymer matrices, the effects of a coating were examined. In these experiments, test samples were made as described in Example 1 to produce thin-disc-shaped drug-loaded polymer matrix. From this material, test samples were prepared by 1) cutting out rectangular polygons of about 3 mm length, about 1 mm width and about 1 mm height were cut from polymerized drug-loaded material; or 2) cutting out cylindrical plugs of about 3 mm length and having a diameter of about 0.5 mm to about 1 mm. The weight of the test samples were in the range about 0.1 mg to about 4 mg.
Certain of these cut test samples were then coated using one of three procedures. Cut test samples were coated with a polymer like poly(p-xylylene) (PARYLENE) to a thickness of about 0.10 μm to about 0.95 μm using a vapor phase deposition procedure. Similarly, cut test samples were coated a metal like titanium to a thickness of about 0.10 μm to about 0.95 μm using a vapor phase deposition procedure. Alternatively, cut test samples were physically wrapped with a tape like polytetrafluoroethylene tape and sealed using cyanoacrylate adhesive.
The presence of opening in a coated test sample was also examined. In these experiments, coated test samples were punctured to produce opening through the coating layer. From one to four opening were made using the tip of an 18G, 23G, 27G or 31G needle. Two types of opening were produced 1) surface pores which created openings only through the coating layer but left the polymer matrix intact; and 2) depot channels which created a tunnel through the entire coated test sample from one end to the other end.
To examine the drug release properties of a test sample, each sample was placed in 2 mL Eppendorf tube containing 1.5 mL of Phosphate Buffered Saline, pH 7.4 (PBS). These tubes were slowly rocked at 37° C. in an incubator. At given time points the PBS was completely removed from the tube and refilled with fresh PBS. An aliquot of the removed PBS was then analyzed by reversed phase HPLC (RPHPLC) to determine the amount of drug released from the test sample during the incubation period. In these experiments, a 10 μL injection of the test sample aliquot was run on an Agilent 1260 Infinity in a reverse phase isocratic mode using UV detection at 210 nm. The column was a Hypersil GOLD Phenyl column, (Dim. (mm) 250×4.6) and the mobile phase was a 1:1 mixture of acetonitrile to aqueous buffer (comprising HPLC grade water mixed with 5 mM ammonium acetate and 0.02% formic acid). The flow rate was 1.2 mL/min and column temperature was 22° C. Peak detection and quantitation was determined by establishing a calibration curve using known amounts of each drug tested and the amount of drug present in the test sample aliquot interpolated from this calibration curve using ChemStation software.

[2] = Chemical stability of prostaglandin analogues in PBS, RPHPLC; conditions: PBS at pH 4, 7 and 10; 4° C., 33° C. and 50° C.
Protocol: The chemical stability of prostaglandin analogues was also examined. In these experiments, a prostaglandin analogue was incubated in phospho-buffered saline (PBS) at pH 4, 7 and 10 and at 4° C., 33° C. and 50° C. representing long term storage, eye temperature and accelerate temperature conditions respectively. Analyses were performed by RPHPLC as described in Example 2, noting any hydrolysis products formed. […] This stability is most likely due to the amide linkage in Bimatoprost which is much more hydrolytically stable than the ester linkage in Latanoprost and Travoprost.

[3] = Release from post-loaded section of the drug delivery device (Example 5)
Protocol: A central section of a self-retaining implantable drug delivery device disclosed herein was loaded with Travoprost by cutting a 3 mm section of the device and then placed into 0.200 mL of hexanes for 3 hours. Following this period, the self-retaining implantable drug delivery device was placed immediately into 0.050 mL of a Travoprost stock solution 25 mg/mL in ethanol and allowed to stand overnight. The following day, this section was washed sequentially by dipping into a water bath, followed by a 10% acetonitrile bath. It was dried at 80 C and set to release the following day. The section was allowed to release over a period of 38 days. The loading was determined to be approximately 13 mcg. […] This release profile is predicted by the Higuchi mechanism. This type of loading procedure we term post loading. The loaded section is coated with a poly(p-xylylene) polymer and two tiny holes are place completely through the section. The section is then molded together with the two flanking sections of the stent to form the final product. The release from this modified stent follows a near zero order release in vitro and in vivo in preclinical animal models and clinical studies.

[4] = Modified Higuchi plot (2A versus Q^2/T)
Protocol: Travoprost and Latanoprost are oily liquids at room temperature whereas Bimatoprost is a solid at room temperature. To determine whether the liquid versus solid phase of these drugs affects their release from the silicone polymer matrix, data was analyzed using an alternative plot based on the Higuchi equation where twice the drug loading value (2A) is plotted on the […] and the average slope of the plot of cumulative drug released squared versus time in hours (Q^2/T) is plotted on the […].

[5] = Higuchi equation analysis of drug release data
Protocol: In order to ascertain whether the mechanism of drug release was based on diffusion, data obtained from various coated silicone polymer matrices were analyzed using the Higuchi equation. This analysis determined the linearity between the cumulative amount of drug released and the square root of time (SQRT). […] As exemplified FIG. 10, data is plotted as the square root of time taken on the x-axis and the cumulative percentage of drug release on the y-axis.

[6] = Korsmeyer-Peppas analysis of drug release data
Protocol: To confirm the results obtained based on the Higuchi equation analysis, the data above was also analyzed using the Korsmeyer-Peppas plot, which evaluates the mechanism of drug release by plotting the log of percent drug released over the log time in hours. If n equals 0.45, then Fickian diffusion is indicated for a cylinder (0.42 for cylinder of low aspect ratio). […] As exemplified FIG. 11, data is plotted as the log of cumulative percent drug released on the y-axis and the log time in hours on the x-axis.

With CC(C)OC(=O)CCC/C=C\C[C@@H]1[C@@H](/C=C/[C@@H](O)COc2cccc(C(F)(F)F)c2)[C@H](O)C[C@@H]1O [Travoprost] the “Daily Release Rate” value ([1]; day 1) was 3.12 µg/day, the “Daily Release Rate” value ([1]; day 5) was 2.21 µg/day and the “Daily Release Rate” value ([1]; day 13) was 1.15 µg/day. For the same compound, the “Daily Release Rate” value ([1]; day 22) was 1.29 µg/day, the “Daily Release Rate” value ([1]; day 26) was 1.30 µg/day and the “Daily Release Rate” value ([1]; day 35) was 1.16 µg/day. For the same compound, the “Daily Release Rate” value ([1]; day 43) was 1.15 µg/day, the “Daily Release Rate” value ([1]; day 54) was 1.35 µg/day and the “Daily Release Rate” value ([1]; day 63) was 1.16 µg/day. For the same compound, the “Daily Release Rate” value ([1]; day 70) was 1.20 µg/day, the “Daily Release Rate” value ([1]; day 83) was 0.900 µg/day and the “Daily Release Rate” value ([1]; day 90) was 0.882 µg/day. The “Daily Release Rate” value ([1]; day 97) was 0.387 µg/day, the “Daily Release Rate” value ([1]; day 105) was 0.891 µg/day and the “Daily Release Rate” value ([1]; day 111) was 0.798 µg/day. For the same compound, the “Daily Release Rate” value ([1]; day 162) was 0.557 µg/day, the “chemical stability (hydrolysis products)” value [2] was “excellent stability” and the loading ([3]; 3 mm device section post loaded from 25 mg/mL Travoprost in ethanol) was “approximately 13 mcg”. For the same compound, the “release at 38 days” value ([3]; post-loaded uncoated 3 mm section) was 99%, the release profile ([3]; post-loaded uncoated 3 mm section, over 38 days) was “curvilinear/asymptotic profile” and the “average slope of cumulative drug released squared versus time in hours (Q^2/T)” value ([4]; Loading (A %) 1.0) was 0.071 ± 0.001. For the same compound, the “average slope of cumulative drug released squared versus time in hours (Q^2/T)” value ([4]; Loading (A %) 2.5) was 0.388 ± 0.046, the “average slope of cumulative drug released squared versus time in hours (Q^2/T)” value ([4]; Loading (A %) 5.0) was 1.097 ± 0.218 and the “average slope of cumulative drug released squared versus time in hours (Q^2/T)” value ([4]; Loading (A %) 10) was 15.821 ± 4.141. The “relationship of Q^2/T to 2A in modified Higuchi plot” value ([4]; Table 10, FIG. 12 and FIG. 13) was “curvilinear relationship”, the “Average Linear Regression r^2 Value, Higuchi Equation Analysis” value (“Average Linear Regression r^2 Value” below) ([5]; Drug Loading 2.5%) was 0.976 and the “Average Linear Regression r^2 Value” value ([5]; Drug Loading 5%) was 0.972. The “Average Linear Regression r^2 Value” value ([5]; Drug Loading 10%) was 0.941, the “Average n Values, Korsmeyer-Peppas Analysis” value ([6]; Drug Loading 2.5%) was 0.543± and the “Average n Values, Korsmeyer-Peppas Analysis” value ([6]; Drug Loading 5%) was 0.507±. The “Average n Values, Korsmeyer-Peppas Analysis” value ([6]; Drug Loading 10%) was 0.453± and the “Average n Values, Korsmeyer-Peppas Analysis, Mean” value ([6]; Mean over drug loadings) was 0.50 ± 0.09.
